In assay [1] the target is T1, STAT6 (Homo sapiens, UniProt P42226).
T1 construct: endogenous in cells; host or cells: A549
T1 sequence (P42226 1-847): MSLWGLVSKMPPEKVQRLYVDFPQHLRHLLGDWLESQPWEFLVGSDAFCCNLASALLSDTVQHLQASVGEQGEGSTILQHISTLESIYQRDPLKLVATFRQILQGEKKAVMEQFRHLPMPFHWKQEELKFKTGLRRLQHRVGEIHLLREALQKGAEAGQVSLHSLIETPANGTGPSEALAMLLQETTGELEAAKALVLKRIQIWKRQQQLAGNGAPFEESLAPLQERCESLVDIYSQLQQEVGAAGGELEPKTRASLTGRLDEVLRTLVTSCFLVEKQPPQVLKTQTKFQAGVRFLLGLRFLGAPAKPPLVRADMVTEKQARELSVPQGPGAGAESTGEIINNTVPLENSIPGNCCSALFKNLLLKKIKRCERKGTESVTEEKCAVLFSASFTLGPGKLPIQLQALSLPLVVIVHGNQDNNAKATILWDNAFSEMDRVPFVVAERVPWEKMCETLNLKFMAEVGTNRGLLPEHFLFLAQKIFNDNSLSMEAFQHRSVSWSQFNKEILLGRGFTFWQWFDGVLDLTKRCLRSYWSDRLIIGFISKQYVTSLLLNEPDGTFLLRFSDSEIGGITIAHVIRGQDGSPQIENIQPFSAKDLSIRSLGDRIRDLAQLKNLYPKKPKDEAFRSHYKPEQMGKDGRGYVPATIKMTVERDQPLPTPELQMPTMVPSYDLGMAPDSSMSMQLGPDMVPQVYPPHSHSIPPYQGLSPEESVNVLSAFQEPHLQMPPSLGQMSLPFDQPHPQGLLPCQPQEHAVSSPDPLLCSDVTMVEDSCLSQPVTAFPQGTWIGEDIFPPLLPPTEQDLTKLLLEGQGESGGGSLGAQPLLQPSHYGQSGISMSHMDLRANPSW
The assay is described as follows: STAT6 MSD degradation in A549 cells. In kind it is cell-based. To be noted: 24 h. Here is the method:
Degradation of STAT6 in cells was quantitatively measured using Meso Scale Discovery (MSD) technology. A549 cells were seeded in 96-well plates with a density of 1.5×10e4 to 5×10e5 cells per well in 100 μl fresh media. Compounds were then added to the assay plates with a final top concentration of up to 10 uM in a 1:3 dilution series with total of 9 doses. The assay plates were then incubated for 4 to 24 hours at 37° C. under 5% CO2. The assay plates were then centrifuged for 5 minutes and the cell pellets were treated with 100 μl/well RIPA lysis buffer (Boston Bioproducts, BP-115D) with protease and phosphatase inhibitors (Roche, 05892791001 and 04906837001). To prepare the MSD assay plates (MSD, L15XA), the plates were coated with the capture antibody (Abnova, H00006778) in PBS, at 40 μl/well. The plates were then incubated overnight at 4° C., washed 1 time with 150 μl/well TBST buffer (Cell Signaling Technology, #9997S) and blocked with 150 μl/well blocking buffer (MSD, R93BA-4). Cell lysates were then added to MSD assay plates and the plates were incubated at room temperature for 1 hour. The plates were then washed 3 times with 150 μl/well TBST buffer and 25 μl/well primary detection antibody (Cell Signaling Technology, #5397S). The assay plates were then incubated at room temperature for 1 hour, washed 3 times with 150 μl/well TBST buffer, and 25 μl/well secondary detection antibody, SULFO-TAG anti-rabbit antibody (MSD, R32AB-1) were added. The assay plates were then incubated at room temperature for 1 hour, washed 3 times with 150 μl/well TBST buffer, and 150 μl/well MSD reading buffer (MSD, R92TC-2) were added. The plates were then analyzed by an MSD reader. The data was analyzed by GraphPad Prism and the dose dependent STAT6 degradation was fit using the four-parameter inhibitor vs. response nonlinear regression.
The letter codes for DC50 (nM) include: A (<1 nM); B (1-10 nM); C (>10-100 nM); D (>100-1000 nM); E (>1000 nM); and F (not tested). The letter codes for Dmax (oo) include: A (>90%); B (>70-90%); C (>50-70%); D ([…]); and F (not tested).

In assay [2] the target is T2, biotinylated truncated STAT6 (123-632)-avi (Homo sapiens, UniProt P42226).
T2 construct: biotinylated truncated STAT6 (123-632)-avi purified from E. coli; made in house; host or cells: E. coli
T2 sequence (P42226 123-632 limits assumed): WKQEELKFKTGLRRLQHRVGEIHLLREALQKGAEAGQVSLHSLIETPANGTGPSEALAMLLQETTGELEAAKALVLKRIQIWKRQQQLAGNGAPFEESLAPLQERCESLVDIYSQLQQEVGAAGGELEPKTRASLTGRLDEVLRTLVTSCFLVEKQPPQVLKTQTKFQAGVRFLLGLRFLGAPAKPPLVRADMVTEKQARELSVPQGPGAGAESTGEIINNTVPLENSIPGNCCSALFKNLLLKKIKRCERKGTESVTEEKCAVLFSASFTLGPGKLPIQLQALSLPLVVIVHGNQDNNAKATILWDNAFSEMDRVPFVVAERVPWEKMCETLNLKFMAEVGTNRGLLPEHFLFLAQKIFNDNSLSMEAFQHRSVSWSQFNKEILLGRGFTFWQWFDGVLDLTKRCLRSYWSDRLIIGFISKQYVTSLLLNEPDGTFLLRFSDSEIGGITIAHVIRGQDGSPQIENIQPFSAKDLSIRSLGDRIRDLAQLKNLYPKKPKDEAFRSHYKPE
The assay is described as follows: STAT6 HTRF binding assay. As to conditions: HTRF binding, 0.15 nM biotinylated truncated STAT6 (123-632)-avi, 20 nM fluorescein-labeled probe. As to the method:
HTRF binding assays were performed using 0.15 nM biotinylated truncated STAT6 (123-632)-avi purified from E. coli, 1× Streptavidin-terbium (CisBio) prepared by mixing SA-Tb in PPI detection buffer (CisBio), 20 nM proprietary fluorescein-labeled probe, and test compounds in assay buffer consisting of 50 mM HEPES-Na pH 7.5, 100 mM NaCl, 1 mM EDTA, 2 mM DTT, 0.1% Tween-20 with a final volume of 20 uL. Compound stocks were dissolved at 10 mM in 100% DMSO and 11 point titration with 3 fold serial dilution was performed in white, opaque 384 well microplates. Reaction plates were incubated at room temperature for 30 minutes. Plates were centrifuged at low rpm for 5 mins, and the ratio of fluorescence intensities were measured at emission wavelengths for fluorescein acceptor (520 nm) and terbium donor (495 nm) on Envision Plate reader. % Inhibition was calculated from the 520/495 ratio generated by using proprietary positive control compound for 100% inhibition and DMSO only reactions for 0% inhibition. Data was processed and dose response curves were generated using GraphPad Prism to determine the concentration required for inhibiting 50% of the HTRF signal (IC50).
The letter codes for IC50 (μM) include: A (<0.1 μM); B (0.1-1 μM); C (>1-10 μM); D (>10-100 μM); E (>100 μM); and F (not tested).
(In general: Time-resolved FRET reads energy transfer from a long-lived donor to a nearby acceptor.)

Assay [3] has as its target T3, STAT6-HiBiT (Homo sapiens, UniProt P42226).
T3 construct: Degradation of STAT6 in endogenously tagged STAT6-HiBiT A549 cells; endogenous in cells; host or cells: A549 (STAT6-HiBiT) knock-in cells
T3 sequence (P42226 1-847): T1 sequence (P42226 1-847)
The assay is described as follows: STAT6 HiBiT degradation in A549 (STAT6-HiBiT) cells. Format: cell-based. As to conditions: 24 h. Here is the method:
Degradation of STAT6 in endogenously tagged STAT6-HiBiT A549 cells was quantitatively measured using the Nano-Glo HiBiT Lytic Detection System (Promega, 3040). A549 (STAT6-HiBiT) cells were seeded in 384-well plates with a density of 1.25k cells per well in 20 μl fresh media. Compounds were then added to the assay plates using the Apricot S3 with a final top concentration of up to 10 uM in a 4-fold dilution series with total of 10 doses. The assay plates were then incubated for 24 hours at 37° C. under 5% CO2. At the assay endpoint, 20 μL of Nano-Glo HiBiT Lytic Reagent was added to each well and agitated on a plate shaker at 300 rpm for 10 minutes at room temperature. Luminescence was read on PHERAStar FSX Instrument (Is integration time). The data was analyzed by GraphPad Prism and the dose dependent STAT6 degradation was fit using the four-parameter inhibitor vs. response nonlinear regression.
The letter codes for DC50 (nM) include: A (<1 nM): B (1-10 nM); C (>10-100 nM); D (>100-1000 nM); E (>1000 nM); and F (not tested). The letter codes for Dmax (%) include: A (>90%); B (>70-90%); C (>50-70%); D (<50%); and E (not tested).
For orientation: With HiBiT, luminescence reflects the tagged protein that the partner subunit can reach.

Data on two molecules can be found in US20260124309A1, “STAT6 DEGRADERS AND USES THEREOF” (Kymera Therapeutics, Inc., priority 2023, published 2026).

By DC50 is commonly meant the concentration giving 50% degradation. Read a low DC50 as a more potent degrader. For orientation: Dmax means the greatest extent of degradation seen. A lower Dmax goes with shallow degradation. In general, IC50 refers to the concentration needed to halve the response being measured.

Take `COc1cc(N2CCN(c3ccc(-c4cc(C5=CCCN(C(=O)CCn6cccn6)C5)c(F)c5[nH]c(C(=O)N(C)C)cc45)c(F)c3F)CC2)c(F)cc1NC1CCC(=O)NC1=O` (stereo not shown) [Example I-677, 6-(1-(3-(1H-pyrazol-1-yl)propanoyl)-1,2,5,6-tetrahydropyridin-3-yl)-4-(4-(4-(4-((2,6-dioxopiperidin-3-yl)amino)-2-fluoro-5-methoxyphenyl)piperazin-1-yl)-2,3-difluorophenyl)-7-fluoro-N,N-dimethyl-1H-indole-2-carboxamide]: the DC50 in assay [1] and in assay [3] was less than 1 nM in each case. The Dmax in assay [1] and in assay [3] was greater than 90% in each case. For the same molecule, in assay [2], the IC50 was less than 100 nM.

With `CN(C)C(=O)c1cc2c(-c3ccc(C4CCN(c5ccc(C6CCC(=O)NC6=O)cc5F)CC4)cc3)cc(C3=CCCN(C(=O)CCn4ccnn4)C3)c(F)c2[nH]1` (stereo not shown) [Example I-1015, 6-(1-(3-(1H-1,2,3-triazol-1-yl)propanoyl)-1,2,5,6-tetrahydropyridin-3-yl)-4-(4-(1-(4-(2,6-dioxopiperidin-3-yl)-2-fluorophenyl)piperidin-4-yl)phenyl)-7-fluoro-N,N-dimethyl-1H-indole-2-carboxamide], in assay [1], the DC50 was less than 1 nM and the Dmax lay within 70 to 90%. Besides, the IC50 in assay [2] is less than 100 nM. For the same molecule, in assay [3], the DC50 was less than 1 nM and the greatest degradation seen (Dmax) is greater than 90%.
